From patent US6841167B1, “β-carboline pharmaceutical compositions” (Lilly Icos LLC., priority 1999, dated 2005)

Key:
[1] = physical stability evaluation of solutions (microscope, drug crystals); assay type: physicochemical; details: PEG 400, room temperature and 4° C.
Description: The solutions then were allowed to cool to room temperature (RT). A portion of each solution was mixed with water (8 mg water per 100 mg solution) to mimic the water migration and retention processes occurring in a soft capsule. The solutions (with and without water) were stored at RT (room temperature) and at 4° C. for physical stability evaluation.

[2] = bioavailability of Compound A; details: in vivo

drug concentration at which PEG 400 solution formulation is physically stable with respect to drug crystallization [1]: ≤ 2.8% | bioavailability [2]: low and inconsistent bioavailability
SMILES: CN1CC(=O)N2[C@H](c3ccc4c(c3)OCO4)c3[nH]c4ccccc4c3C[C@@H]2C1=O (relative stereo) [Compound A, (6R-trans)-6-(1,3-benzodioxol-5-yl)-2,3,6,7,12,12a-hexahydro-2-methylpyrazino-[1′, 2′:1, ]pyrido[3,4-b]indole-1,4-dione]
